Measurements: US4705900A, “Insecticidal alkenes” (Imperial Chemical Industries PLC, priority 1985, dated 1987)

Assays:
[1] = system: Tetranychus urticae; assay: mortality of red spider mites (TU), contact test; format: in vivo, Tetranychus urticae (red spider mites - adult); conditions: French bean leaf, 3 days
Method: (§1) The activity of the Product was determined using a variety of insect pests. The Product was used in the form of liquid preparations containing 500 or 100 parts per million (ppm) by weight of the Product. The preparations were made by dissolving the Product in acetone and diluting the solutions with water containing 0.01% by weight of a wetting agent sold under the trade name "LISSAPOL" NX until the liquid preparations contained the required concentration of the Product. "Lissapol" is a Registered Trade Mark.
(§2) The test procedure adopted with regard to each pest was basically the same and comprised supporting a number of the pests on a medium which was usually a host plant or a foodstuff on which the pests feed, and treating either or both the pests and the medium with the preparations. The mortality of the pests was then assessed at periods usually varying from one to three days after the treatment.
(§3) The results of the tests are given in Table IV for each of the Products, at the rate in parts per million given in the second column as a grading of mortality designated as A, B or C wherein A indicates 80-100% mortality or knockdown, B indicates 50-79% mortality or knockdown and C indicates less than 50% mortality or knockdown.
(§4) In Table IV the pest organism used is designated by a letter code and the pests species, the support medium or food, and the type and duration of test is given in Table III.
(red spider mites - adult)

[2] = system: Myzus persicae; assay: mortality of aphids (MP), contact test; format: in vivo, Myzus persicae (aphids); conditions: leaf, 2 days
Method: as §1, §2, §3, §4

[3] = system: Nilaparvata lugens; assay: mortality of green leaf hopper (NL), contact test; format: in vivo, Nilaparvata lugens (brown planthopper); conditions: cabbage leaf, 6 days
Method: as §1, §2, §3, §4

[4] = system: Musca domestica; assay: knockdown of houseflies (MD/KD); format: in vivo, Musca domestica (houseflies - adults); conditions: cotton wool/sugar, 4 hours
Method: as §1, §2
In case of the species Musca domestica (housefly), additional tests to determine the knockdown effect of the compounds were performed.
as §3, §4

[5] = system: Musca domestica; assay: mortality of houseflies (MD), contact test; format: in vivo, Musca domestica (houseflies - adults); conditions: cotton wool/sugar, 1 day
Method: as §1, §2, §3, §4

[6] = system: Blattella germanica; assay: mortality of cockroach nymphs (BG), residual test; format: in vivo, Blattella germanica (cockroach nymphs); conditions: plastic pot, 3 days
Method: as §1, §2, §3, §4

[7] = system: Heliothis viriscens; assay: whole plant or invertebrate; format: in vivo, Heliothis viriscens (tobacco budworm); conditions: in Gossypium hirsutum, 72 h, read-out: grading of mortality, HV
Method: as §1, §2, §3, §4

[8] = system: Chilo partellurs; assay: mortality of stem borers (CP), residual test; format: in vivo, Chilo partellurs (Stem borers); conditions: oil seed rape leaf, 3 days
Method: as §1, §2, §3, §4

[9] = system: Diabrotica balteata; assay: mortality of rootworm larvae (DB), residual test; format: in vivo, Diabrotica balteata (rootworm larvae); conditions: filter paper/maize seed, 3 days
Method: as §1, §2, §3, §4

[10] = Tetranychus urticae, 72 h, 500 ppm, read-out: grading of mortality, TU
[11] = Myzus persicae, 48 h, 500 ppm, read-out: grading of mortality, MP
[12] = Nilaparvata lugens, in Brassica oleracea, 144 h, 500 ppm, read-out: grading of mortality, NL
[13] = Musca domestica, 500 ppm, read-out: grading of knockdown, MD/KD
[14] = Musca domestica, 24 h, 500 ppm, read-out: grading of mortality, MD
[15] = Blattella germanica, 72 h, 500 ppm, read-out: grading of mortality, BG
[16] = Chilo, 72 h, 500 ppm, read-out: grading of mortality, CP
[17] = Diabrotica balteata, in Zea mays, 72 h, 500 ppm, read-out: grading of mortality, DB

Compound	mortality at 500 ppm [1, 10] [%]	mortality at 500 ppm [2, 11] [%]	mortality at 500 ppm [3, 12] [%]	pest or weed control at 500 ppm [4, 13] [%]	mortality at 500 ppm [5, 14] [%]	mortality at 500 ppm [6, 15] [%]	mortality at 500 ppm [7] [%]	mortality at 500 ppm [8, 16] [%]	mortality at 500 ppm [9, 17] [%]	further results
Fc1ccc(/C=C/C2(COCc3cccc(Oc4ccccc4)c3)CC2)cc1 [Compound 19, 1-[2-(4-fluorophenyl)ethen-1-yl]-1-(3-phenoxybenzyloxymethyl)cyclopropane]	–	–	–	–	–	–	–	–	–	mortality at 100 ppm ([1]; Tetranychus urticae, 72 h, 100 ppm, read-out: grading of mortality, TU): < 50%; mortality at 100 ppm ([2]; Myzus persicae, 48 h, 100 ppm, read-out: grading of mortality, MP): < 50%; mortality at 100 ppm ([3]; Nilaparvata lugens, in Brassica oleracea, 144 h, 100 ppm, read-out: grading of mortality, NL): < 50%; pest or weed control at 100 ppm ([4]; Musca domestica, 100 ppm, read-out: grading of knockdown, MD/KD): < 50%; mortality at 100 ppm ([5]; Musca domestica, 24 h, 100 ppm, read-out: grading of mortality, MD): < 50%; mortality at 100 ppm ([6]; Blattella germanica, 72 h, 100 ppm, read-out: grading of mortality, BG): < 50%; mortality at 100 ppm [7]: 80 to 100%; mortality at 100 ppm ([8]; Chilo, 72 h, 100 ppm, read-out: grading of mortality, CP): < 50%; mortality at 100 ppm ([9]; Diabrotica balteata, in Zea mays, 72 h, 100 ppm, read-out: grading of mortality, DB): < 50%
CC(C)(C=Cc1ccc(F)c(F)c1)COCc1cccc(Oc2ccccc2)c1 [Compound 18, 3,3-Dimethyl-1-(3,4-difluorophenyl)-4-(3-phenoxybenzyloxy)but-1-ene]	50 to 79	< 50	< 50	< 50	< 50	< 50	80 to 100	80 to 100	< 50	–
CCC(C)(/C=C/c1ccc(Cl)cc1)COCc1cccc(Oc2ccccc2)c1 (stereo not shown) [Compound 25, 3-Ethyl-3-methyl-1-(4-chlorophenyl)-4-(3-phenoxybenzyloxy)but-1-ene]	< 50	50 to 79	50 to 79	< 50	50 to 79	80 to 100	80 to 100	–	< 50	–
Clc1ccc(/C=C/C2(COCc3cccc(Oc4ccccc4)c3)CC2)cc1 [Compound 22, 1-[2-(4-chlorophenyl)ethen-1-yl]-1-(3-phenoxybenzyloxymethyl)cyclopropane]	< 50	< 50	50 to 79	< 50	< 50	< 50	< 50	80 to 100	< 50	–
CCOc1ccc(/C=C/C(C)(C)COCc2cccc(Oc3ccccc3)c2)cc1 [Compound 4, 3,3-Dimethyl-1-(4-ethoxyphenyl)-4-(3-phenoxybenzyloxy)but-1-ene]	< 50	< 50	< 50	< 50	< 50	< 50	< 50	< 50	< 50	–
CC(C)(C=Cc1ccccc1)COCc1ccc(F)c(Oc2ccccc2)c1 [Compound 9, 3,3-Dimethyl-1-phenyl-4-(4-fluoro-3-phenoxybenzyloxy)but-1-ene]	< 50	80 to 100	80 to 100	80 to 100	80 to 100	< 50	80 to 100	80 to 100	80 to 100	–
CC(C)(C=Cc1ccc(Cl)cc1)COCc1cccc(Oc2ccccc2)c1 [Compound 13, 3,3-Dimethyl-1-(4-chlorophenyl)-4-(3-phenoxybenzyloxy)but-1-ene]	–	–	–	–	–	–	–	–	–	grading of mortality, TU ([1]; 500 ppm): B (B indicates 50-79% mortality or knockdown); grading of mortality, MP ([2]; 500 ppm, 2880 min): A (A indicates 80-100% mortality or knockdown); grading of mortality, NL ([3]; 500 ppm, 8640 min): A (A indicates 80-100% mortality or knockdown); grading of knockdown, MD/KD ([4]; 500 ppm): A (A indicates 80-100% mortality or knockdown); grading of mortality, MD ([5]; 500 ppm): B (B indicates 50-79% mortality or knockdown); grading of mortality, BG ([6]; 500 ppm): C (C indicates less than 50% mortality or knockdown); grading of mortality, CP ([8]; 500 ppm): A (A indicates 80-100% mortality or knockdown); grading of mortality, DB ([9]; 500 ppm, 4320 min): A (A indicates 80-100% mortality or knockdown)
